# Experiments:
# INSR (human) = INSR (human) (UniProt P06213)
# [1] = system: KIT (human), P10721 [D816V]; assay: KINOMEscan competition binding; conditions: compound 10.0 µM
# PDGFRA (human) = PDGFRA (human) (UniProt P16234); assay: KINOMEscan competition binding; conditions: compound 10.0 µM
# WEE1 (human) = WEE1 (human) (UniProt P30291); assay: KINOMEscan competition binding; conditions: compound 10.0 µM
# DCLK1 (human) = DCLK1 (human) (UniProt O15075); assay: KINOMEscan competition binding; conditions: compound 10.0 µM
# TLK2 (human) = TLK2 (human) (UniProt Q86UE8); assay: KINOMEscan competition binding; conditions: compound 10.0 µM
# PKMYT1 (human) = PKMYT1 (human) (UniProt Q99640); assay: KINOMEscan competition binding; conditions: compound 10.0 µM
# Chain of PKMYT1 (human) (Q99640 whole entry, looked up): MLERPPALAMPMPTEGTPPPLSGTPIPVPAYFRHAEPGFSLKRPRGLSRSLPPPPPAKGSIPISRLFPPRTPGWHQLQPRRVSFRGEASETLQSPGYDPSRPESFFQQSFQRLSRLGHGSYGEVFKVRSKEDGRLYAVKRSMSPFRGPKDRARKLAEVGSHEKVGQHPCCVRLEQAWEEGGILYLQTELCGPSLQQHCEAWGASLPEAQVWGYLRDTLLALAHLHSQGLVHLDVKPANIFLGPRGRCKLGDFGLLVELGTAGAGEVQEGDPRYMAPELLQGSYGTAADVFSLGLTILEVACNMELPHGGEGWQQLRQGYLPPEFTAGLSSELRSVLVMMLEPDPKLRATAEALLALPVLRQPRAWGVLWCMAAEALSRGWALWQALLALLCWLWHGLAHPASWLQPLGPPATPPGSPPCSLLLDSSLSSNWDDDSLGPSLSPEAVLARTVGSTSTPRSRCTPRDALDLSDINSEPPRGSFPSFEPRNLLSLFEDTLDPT
# MAPK15 (human) = MAPK15 (human) (UniProt Q8TD08); assay: KINOMEscan competition binding; conditions: compound 10.0 µM
# TGFBR2 (human) = TGFBR2 (human) (UniProt P37173); assay: KINOMEscan competition binding; conditions: compound 10.0 µM
# ANKK1 (human) = ANKK1 (human) (UniProt Q8NFD2); assay: KINOMEscan competition binding; conditions: compound 10.0 µM
# DDR1 (human) = DDR1 (human) (UniProt Q08345); assay: KINOMEscan competition binding; conditions: compound 10.0 µM
# ZAP70 (human) = ZAP70 (human) (UniProt P43403); assay: KINOMEscan competition binding; conditions: compound 10.0 µM
# PIK3C2B (human) = PIK3C2B (human) (UniProt O00750); assay: KINOMEscan competition binding; conditions: compound 10.0 µM
# [2] = system: FLT3 (human), P36888 [D835H]; assay: KINOMEscan competition binding; conditions: compound 10.0 µM
# ACVR2A (human) = ACVR2A (human) (UniProt P27037); assay: KINOMEscan competition binding; conditions: compound 10.0 µM
# Chain of ACVR2A (human) (P27037 whole entry, looked up): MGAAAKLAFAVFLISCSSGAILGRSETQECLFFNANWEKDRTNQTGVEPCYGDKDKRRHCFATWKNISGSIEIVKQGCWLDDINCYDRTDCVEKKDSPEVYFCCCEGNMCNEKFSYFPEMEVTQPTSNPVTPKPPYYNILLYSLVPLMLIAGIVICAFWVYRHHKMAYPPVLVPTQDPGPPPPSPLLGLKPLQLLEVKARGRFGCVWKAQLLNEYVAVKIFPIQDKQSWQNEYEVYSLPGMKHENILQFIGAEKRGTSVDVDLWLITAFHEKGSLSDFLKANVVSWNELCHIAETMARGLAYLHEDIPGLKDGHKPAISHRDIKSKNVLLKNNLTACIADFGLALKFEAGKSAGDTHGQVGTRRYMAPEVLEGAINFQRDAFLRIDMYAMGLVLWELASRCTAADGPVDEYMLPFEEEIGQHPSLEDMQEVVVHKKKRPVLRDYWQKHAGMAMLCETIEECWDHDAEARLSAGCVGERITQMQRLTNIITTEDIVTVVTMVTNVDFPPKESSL
# MYLK (human) = MYLK (human) (UniProt Q15746); assay: KINOMEscan competition binding; conditions: compound 10.0 µM
# Chain of MYLK (human) (Q15746 whole entry, looked up): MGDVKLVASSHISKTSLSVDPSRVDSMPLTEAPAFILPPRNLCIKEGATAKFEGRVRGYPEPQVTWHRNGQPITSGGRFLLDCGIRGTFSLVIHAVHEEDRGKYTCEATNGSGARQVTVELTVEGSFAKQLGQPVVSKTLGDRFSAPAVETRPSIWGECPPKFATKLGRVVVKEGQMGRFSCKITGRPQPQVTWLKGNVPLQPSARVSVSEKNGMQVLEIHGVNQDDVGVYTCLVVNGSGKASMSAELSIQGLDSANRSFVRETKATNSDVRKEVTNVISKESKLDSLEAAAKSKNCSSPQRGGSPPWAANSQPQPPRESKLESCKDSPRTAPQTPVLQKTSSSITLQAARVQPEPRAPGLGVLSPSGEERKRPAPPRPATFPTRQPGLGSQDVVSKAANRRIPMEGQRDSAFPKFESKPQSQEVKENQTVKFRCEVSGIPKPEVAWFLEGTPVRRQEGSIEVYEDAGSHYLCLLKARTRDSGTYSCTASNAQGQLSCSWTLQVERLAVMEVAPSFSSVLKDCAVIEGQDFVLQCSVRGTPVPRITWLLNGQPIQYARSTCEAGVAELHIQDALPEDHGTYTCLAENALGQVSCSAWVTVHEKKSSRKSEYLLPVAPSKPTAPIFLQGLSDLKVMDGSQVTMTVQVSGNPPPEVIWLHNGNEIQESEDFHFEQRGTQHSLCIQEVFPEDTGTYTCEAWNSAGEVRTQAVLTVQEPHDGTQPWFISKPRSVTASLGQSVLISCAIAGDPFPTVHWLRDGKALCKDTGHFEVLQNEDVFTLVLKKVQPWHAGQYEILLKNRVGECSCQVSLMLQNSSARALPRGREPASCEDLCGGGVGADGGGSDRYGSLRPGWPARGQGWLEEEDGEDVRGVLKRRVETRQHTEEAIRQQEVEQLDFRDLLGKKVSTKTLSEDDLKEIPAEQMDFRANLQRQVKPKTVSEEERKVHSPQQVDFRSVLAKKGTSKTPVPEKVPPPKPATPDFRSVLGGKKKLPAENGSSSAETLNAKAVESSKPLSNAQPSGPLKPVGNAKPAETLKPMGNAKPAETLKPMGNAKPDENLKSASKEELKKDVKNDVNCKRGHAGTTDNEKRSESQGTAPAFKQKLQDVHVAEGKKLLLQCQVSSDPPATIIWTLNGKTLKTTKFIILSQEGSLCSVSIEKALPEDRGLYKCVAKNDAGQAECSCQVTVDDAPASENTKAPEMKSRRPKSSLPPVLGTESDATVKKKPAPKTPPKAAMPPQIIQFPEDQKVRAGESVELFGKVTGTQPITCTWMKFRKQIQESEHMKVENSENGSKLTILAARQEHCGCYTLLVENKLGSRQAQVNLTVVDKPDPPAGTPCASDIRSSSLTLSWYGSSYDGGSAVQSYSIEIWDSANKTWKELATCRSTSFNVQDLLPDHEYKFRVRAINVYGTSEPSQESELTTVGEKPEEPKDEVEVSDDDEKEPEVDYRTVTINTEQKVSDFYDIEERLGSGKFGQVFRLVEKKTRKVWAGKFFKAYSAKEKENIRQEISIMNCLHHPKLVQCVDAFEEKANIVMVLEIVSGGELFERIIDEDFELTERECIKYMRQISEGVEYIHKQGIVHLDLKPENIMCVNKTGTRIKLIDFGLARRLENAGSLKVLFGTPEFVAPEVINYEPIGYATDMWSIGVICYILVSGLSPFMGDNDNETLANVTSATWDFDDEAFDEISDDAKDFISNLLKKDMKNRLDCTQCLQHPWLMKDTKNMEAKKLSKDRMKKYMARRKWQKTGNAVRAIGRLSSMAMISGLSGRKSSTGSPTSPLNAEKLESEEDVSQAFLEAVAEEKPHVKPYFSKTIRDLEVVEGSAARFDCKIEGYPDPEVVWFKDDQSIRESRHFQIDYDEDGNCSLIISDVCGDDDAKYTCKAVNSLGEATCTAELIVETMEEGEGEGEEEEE
# GSK3B (human) = GSK3B (human) (UniProt P49841); assay: KINOMEscan competition binding; conditions: compound 10.0 µM
# Chain of GSK3B (human) (P49841 whole entry, looked up): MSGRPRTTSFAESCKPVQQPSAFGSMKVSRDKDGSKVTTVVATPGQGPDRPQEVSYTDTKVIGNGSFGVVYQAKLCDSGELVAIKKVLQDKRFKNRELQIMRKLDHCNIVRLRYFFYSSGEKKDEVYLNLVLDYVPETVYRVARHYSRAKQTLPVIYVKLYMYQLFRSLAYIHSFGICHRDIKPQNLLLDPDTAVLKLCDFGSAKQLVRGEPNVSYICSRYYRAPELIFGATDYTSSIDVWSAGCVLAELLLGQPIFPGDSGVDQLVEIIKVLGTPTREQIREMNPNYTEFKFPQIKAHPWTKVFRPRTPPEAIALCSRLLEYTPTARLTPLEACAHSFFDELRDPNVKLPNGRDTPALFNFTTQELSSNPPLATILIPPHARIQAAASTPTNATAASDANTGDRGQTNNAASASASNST
# PRKACA (human) = PRKACA (human) (UniProt P17612); assay: KINOMEscan competition binding; conditions: compound 10.0 µM
# MAP2K4 (human) = MAP2K4 (human) (UniProt P45985); assay: KINOMEscan competition binding; conditions: compound 10.0 µM
# Chain of INSR (human) (P06213 whole entry, looked up): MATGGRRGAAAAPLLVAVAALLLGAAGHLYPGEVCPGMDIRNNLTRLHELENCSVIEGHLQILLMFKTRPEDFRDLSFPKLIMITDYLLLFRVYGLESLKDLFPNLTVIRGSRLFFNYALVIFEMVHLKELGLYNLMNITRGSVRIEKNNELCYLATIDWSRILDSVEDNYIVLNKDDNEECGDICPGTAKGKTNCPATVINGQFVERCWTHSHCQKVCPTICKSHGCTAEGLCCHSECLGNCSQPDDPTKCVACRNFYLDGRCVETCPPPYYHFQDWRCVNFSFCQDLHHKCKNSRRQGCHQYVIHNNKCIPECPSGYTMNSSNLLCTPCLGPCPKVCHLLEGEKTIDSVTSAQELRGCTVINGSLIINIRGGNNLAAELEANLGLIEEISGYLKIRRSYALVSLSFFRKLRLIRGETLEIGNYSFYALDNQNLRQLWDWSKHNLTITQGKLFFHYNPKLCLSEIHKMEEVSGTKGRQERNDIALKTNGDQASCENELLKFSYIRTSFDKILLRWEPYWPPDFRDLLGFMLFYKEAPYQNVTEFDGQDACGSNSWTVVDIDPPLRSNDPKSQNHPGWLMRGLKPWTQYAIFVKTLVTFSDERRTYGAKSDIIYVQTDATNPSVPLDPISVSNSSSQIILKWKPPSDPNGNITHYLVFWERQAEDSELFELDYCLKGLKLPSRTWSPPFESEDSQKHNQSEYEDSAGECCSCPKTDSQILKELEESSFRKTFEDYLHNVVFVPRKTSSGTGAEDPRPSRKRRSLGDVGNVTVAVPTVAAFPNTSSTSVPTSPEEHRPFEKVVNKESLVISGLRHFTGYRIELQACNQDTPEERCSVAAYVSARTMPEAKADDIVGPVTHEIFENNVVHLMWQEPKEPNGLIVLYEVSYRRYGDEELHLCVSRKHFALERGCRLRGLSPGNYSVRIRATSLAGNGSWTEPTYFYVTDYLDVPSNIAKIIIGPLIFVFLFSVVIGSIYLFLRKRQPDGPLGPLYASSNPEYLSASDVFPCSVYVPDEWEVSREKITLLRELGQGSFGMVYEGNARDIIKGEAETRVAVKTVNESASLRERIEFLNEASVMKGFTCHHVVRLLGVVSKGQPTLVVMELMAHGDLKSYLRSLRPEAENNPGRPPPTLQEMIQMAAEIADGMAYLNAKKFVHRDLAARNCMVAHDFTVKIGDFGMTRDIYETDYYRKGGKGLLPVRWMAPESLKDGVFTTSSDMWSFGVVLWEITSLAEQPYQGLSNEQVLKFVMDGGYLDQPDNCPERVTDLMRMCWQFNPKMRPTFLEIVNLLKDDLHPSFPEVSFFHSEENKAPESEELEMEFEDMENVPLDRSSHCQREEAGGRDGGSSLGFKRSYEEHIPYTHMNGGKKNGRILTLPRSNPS
compound,measurement,setting,value
COc1ccc(-c2ccc3c(N4CCOCC4)nc(N4C[C@@H](C)O[C@@H](C)C4)nc3n2)cc1CO,per cent of control,INSR (human); compound 1.0 µM,81%
same,per cent of control,INSR (human); compound 10.0 µM,67%
same,"kinase still bound, per cent of control",[1],94%
same,"kinase still bound, per cent of control",PDGFRA (human),94%
same,"kinase still bound, per cent of control",WEE1 (human),98%
same,"kinase still bound, per cent of control",DCLK1 (human),100%
same,"kinase still bound, per cent of control",TLK2 (human),87%
same,"kinase still bound, per cent of control",PKMYT1 (human),84%
same,"kinase still bound, per cent of control",MAPK15 (human),96%
same,"kinase still bound, per cent of control",TGFBR2 (human),92%
same,"kinase still bound, per cent of control",ANKK1 (human),98%
same,"kinase still bound, per cent of control",DDR1 (human),85%
same,"kinase still bound, per cent of control",ZAP70 (human),83%
same,"kinase still bound, per cent of control",PIK3C2B (human),85%
same,"kinase still bound, per cent of control",[2],100%
same,"kinase still bound, per cent of control",ACVR2A (human),100%
same,per cent of control,MYLK (human),57%
same,"kinase still bound, per cent of control",GSK3B (human),100%
same,per cent of control,PRKACA (human),100%
same,"kinase still bound, per cent of control",MAP2K4 (human),88%

# Reference: the kinase profiling compilation of Christmann-Franck et al. (2016)
